Earlier results as cited in patent publication US6486152B1, “Topical carbamazepine formulations and methods of use” (Taro Pharmaceutical Industries Ltd., priority 1997, dated 2002).

Columns and labels:
[1] = tested on: psoriatic erythroderma; conditions: HIV positive patient

For `NC(=O)N1c2ccccc2C=Cc2ccccc21` [Carbamazepine, 5-carbamoyl-5H-dibenz[b,f]azepine], the “psoriatic erythroderma condition during first intake” value ([1]; accidentally ingested 200-400 mg/day for two weeks) is listed as “exhibited improvement”, the “psoriatic erythroderma condition after stopping the medication” value ([1]; after they stopped taking the medication) is listed as “flared up again” and the “psoriatic erythroderma condition on second intake” value ([1]; intentionally took the medication a second time) is listed as “improved once again”. For the same compound, the mood ([1]; systemic (ingested) carbamazepine) was “affected”, the solubility in acetone (acetone) was “soluble” and the solubility in alcohols (alcohols) was “soluble”. The “solubility in propylene glycol” value (propylene glycol) was “soluble” and the solubility in water (water) was “practically insoluble”.
